Measured values: patent US5354865A, “Phenylmethyl derivatives having lipoxygenase inhibitory activity” (Abbott Laboratories, priority 1992, dated 1994)

biological target: T1, 5-Lipoxygenase (Homo sapiens, UniProt P09917); experiment: Inhibition of leukotriene biosynthesis: calcium ionophore A23187-induced LTB4 biosynthesis in human whole blood (RIA); assay type: cell-based; conditions: @ 0.20 μM; human whole blood, A23187; read-out: Inhibition of stimulated LTB4 formation in human whole blood
T1 construct: from tissue; host or cells: human heparinized whole blood (endogenous enzyme of its blood cells)
T1 sequence (P09917 1-674): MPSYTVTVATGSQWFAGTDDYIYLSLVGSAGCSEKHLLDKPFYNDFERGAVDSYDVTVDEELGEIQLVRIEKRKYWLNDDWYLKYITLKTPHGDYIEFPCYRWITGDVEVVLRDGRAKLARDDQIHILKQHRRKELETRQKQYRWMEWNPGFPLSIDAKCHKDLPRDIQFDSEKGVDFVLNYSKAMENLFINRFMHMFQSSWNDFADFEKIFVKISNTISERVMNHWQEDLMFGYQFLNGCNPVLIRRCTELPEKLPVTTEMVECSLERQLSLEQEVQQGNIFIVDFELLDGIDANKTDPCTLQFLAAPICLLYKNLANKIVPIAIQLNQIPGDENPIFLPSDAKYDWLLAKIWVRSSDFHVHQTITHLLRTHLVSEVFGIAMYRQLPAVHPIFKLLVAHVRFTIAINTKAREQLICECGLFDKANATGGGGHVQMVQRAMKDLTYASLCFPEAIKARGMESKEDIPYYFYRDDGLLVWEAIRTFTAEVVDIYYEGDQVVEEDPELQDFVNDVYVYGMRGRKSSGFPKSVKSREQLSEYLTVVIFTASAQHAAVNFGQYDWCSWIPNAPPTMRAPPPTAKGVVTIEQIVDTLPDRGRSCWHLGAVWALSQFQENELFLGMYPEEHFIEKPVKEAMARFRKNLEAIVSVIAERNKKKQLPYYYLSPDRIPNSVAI
Method: Inhibition of leukotriene biosynthesis was evaluated in an assay, involving calcium ionophore-induced LTB4 biosynthesis expressed human whole blood. Human heparinized whole blood was preincubated with test compounds or vehicle for 15 min at 37° C. followed by calcium ionophore A23187 challenge (final concentration of 8.3 μM) and the reaction terminated after 30 min by adding two volumes of methanol containing prostaglandin B2 as an internal recovery standard. The methanol extract was analyzed for LTB4 using a commercially available radioimmunoassay.

With CON=C(c1cc(F)cc(OCc2ccc3c(ccc(=O)n3C)c2)c1)C1CCOCC1 [Example 15, E- and Z-O-methyl-[(3-((1,2-dihydro-1-methyl-2-oxoquinolin-6-yl)methoxy)-5-fluorophen-1-yl)oximinomethyl]tetrahydropyran] the inhibition at 0.2 µM was 99.6%.

same assay, conditions: @ 0.39 μM; human whole blood, A23187; read-out: Inhibition of stimulated LTB4 formation in human whole blood

Point of comparison: Cn1c(=O)ccc2cc(COc3cccc(C(=NO)C4CCOCC4)c3)ccc21 [Example 11, E- and Z-4-[(3-((1,2-dihydro-1-methyl-2-oxoquinolin-6-yl)methoxy)phen-1-yl)oximinomethyl]tetrahydropyran], inhibition at 0.39 µM 73%. Against it:
- CON=C(c1cccc(OCc2ccc3ccccc3c2)c1)C1CCOCC1 [Example 7, E- and Z-O-methyl-4-[(3-(naphth-2-yl)methoxyphen-1-yl)oximinomethyl]tetrahydropyran] — lower, 68%

same assay, conditions: @ 0.78 μM; human whole blood, A23187; read-out: Inhibition of stimulated LTB4 formation in human whole blood

Point of comparison: Cn1c(=O)ccc2cc(COc3cc(F)cc(C(=NO)C4CCOCC4)c3)ccc21 [Example 16, E- and Z-4-[(3-((1,2-dihydro-1-methyl-2-oxoquinolin-6-yl)methoxy)-5-fluorophen-1-yl) oximinomethyl]tetrahydropyran], inhibition at 0.78 µM 98%. Against it:
- CON=C(c1cccc(OCc2ccc3c(ccc(=O)n3C)c2)c1)C1CCOCC1 [Example 12, E- and Z-O-Methyl-4-[(3-((1,2-dihydro-1-methyl-2-oxoquinolin-6-yl)methoxy)phen-1-yl)oximinomethyl]tetrahydropyran] — higher, 99%

same assay, conditions: human heparinized whole blood, 15 min preincubation at 37° C., A23187 8.3 μM, 30 min; LTB4 by RIA; read-out: In vitro inhibitory potency against 5-lipoxygenase from stimulated LTB4 formation in human whole blood, IC50

Point of comparison: NN=C(c1cccc(OCc2ccc3ccccc3c2)c1)C1CCOCC1 [Example 6], IC50 2400 nM. Against it:
- OC(c1cccc(OCc2ccc3ccccc3c2)c1)C1CCOCC1 (centres unmarked) [Example 1, 4-[(3-(naphth-2-yl)methoxyphen-1-yl)hydroxymethyl]tetrahydropyran] — within 1.5-fold, 3500 nM
- COC(c1cccc(OCc2ccc3ccccc3c2)c1)C1CCOCC1 (centres unmarked) [Example 2, 4-[(3-(naphth-2-yl)methoxyphen-1-yl)methoxymethyl]tetrahydropyran] — 3.3-fold lower, 730 nM
- COC(c1cccc(OCc2ccc3c(ccc(=O)n3C)c2)c1)C1CCOCC1 (centres unmarked) [Example 9, 4-[(3-(1,2-dihydro-1-methyl-2-oxoquinolin-6-yl)methyloxyphen-1-yl)methoxymethyl]tetrahydropyran] — 3.4-fold lower, 710 nM
- COCOC(c1cccc(OCc2ccc3c(ccc(=O)n3C)c2)c1)C1CCOCC1 (centres unmarked) [Example 10, 4-[(3-((1,2-dihydro-1-methyl-2-oxoquinolin-6-yl)methoxy)phen-1-yl)methoxymethoxymethyl]tetrahydropyran] — 2.6-fold lower, 940 nM
- CCON=C(c1cccc(OCc2ccc3c(ccc(=O)n3C)c2)c1)C1CCOCC1 [Example 13, E- and Z-O-Ethyl-4-[(3-((1,2-dihydro-1-methyl-2-oxoquinolin-6-yl)methoxy)phen-1-yl)oximinomethyl]tetrahydropyran] — 2.9-fold lower, 830 nM
- COC1(Cc2cccc(OCc3ccc4ccccc4c3)c2)CCOCC1 [Example 14, 4-methoxy-4-[(3-((naphth-2-yl)methoxy)phen-1-yl)methyl]tetrahydropyran] — within 1.5-fold, 2000 nM
- CON=C(c1cc(F)cc(OCc2ccc3ccccc3c2)c1)C1(C)COC1 [Example 17, E- and Z-O-methyl-3-methyl-3-[(3-((naphth-2-yl)methoxy)-5-fluorophen-1-yl)oximinomethyl]oxetane] — within 1.5-fold, 2900 nM
- CC1(C(=NO)c2cc(F)cc(OCc3ccc4ccccc4c3)c2)COC1 [Example 18, E- and Z-3-methyl-3-[(3-((naphth-2-yl)methoxy)-5-fluorophen-1-yl)oximinomethyl]oxetane] — 2.2-fold higher, 5200 nM
